# Reference: US10662171B2, “Antidiabetic bicyclic compounds” (Merck Sharp & Dohme Corp., priority 2014, dated 2020)
# Molecular target: T1, human GPR40 (Homo sapiens, UniProt O14842)
# T1 construct: expressed in transfected cells; host or cells: HEK cells stably expressing the aequorin reporter
# Test: Inositol Phosphate Turnover (IP1) Assay 2
# Format: cell-based
# Conditions: HEK cells stably expressing human GPR40; compound acoustically transferred; 60 minutes at 37 degrees
# Method: (§1) Human and mouse GPR40 stable cell-lines were generated in CHO cells stably expressing NFAT BLA (Beta-lactamase). A human GPR40 stable cell-line was generated in HEK cells stably expressing the aequorin expressing reporter. The expression plasmids were transfected using lipofectamine (Life Technologies) following manufacturer's instructions. Stable cell-lines were generated following drug selection.
# (§2) The assay is performed in 384-well format. HEK cells stably expressing human GPR40 are plated at 15,000 cells per well in growth medium (DMEM/10% fetal calf serum). Cell plates are then incubated 16 hours at 37 degrees in a 5% CO2 incubator.
# (§3) Measurement of Inositol Phosphate Turnover (IP1) is performed using the CisBio IP-One kit (Part number 62IPAPEB). After the 16 hour incubation, the cells are washed with HEPES buffer and 10 ul of stimulation buffer (prepared as described in the kit) is added to each well. In a separate plate, compounds are diluted in DMSO (400-fold over the final concentration in the assay well) and 25 nl is acoustically transferred to the appropriate well in the assay cell plate. The plates were then incubated for 60 minutes at 37 degrees. 10 ul of detection buffer (also prepared as described in the IP-One kit) is added to each well and the plates are incubated for 60 minutes in the dark. The plates are then read in a Perkin Elmer EnVision or equivalent reader able to measure FRET. Fluorescent ratio of emission at 665 and 620 nm is then converted to IP1 concentration by back calculating from an IP1 standard curve prepared at the time of the assay.
# T1 sequence (O14842 whole entry): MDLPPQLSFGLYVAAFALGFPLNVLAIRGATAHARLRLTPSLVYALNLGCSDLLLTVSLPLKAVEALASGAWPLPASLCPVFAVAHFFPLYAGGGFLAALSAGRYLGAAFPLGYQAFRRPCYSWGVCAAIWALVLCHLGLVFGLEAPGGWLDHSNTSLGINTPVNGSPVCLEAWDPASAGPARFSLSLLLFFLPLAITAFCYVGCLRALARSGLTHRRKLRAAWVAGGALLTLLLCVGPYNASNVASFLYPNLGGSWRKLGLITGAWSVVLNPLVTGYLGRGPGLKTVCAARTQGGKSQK
row,EC50 [nM],Compound
1,15,"COc1cc(-c2ccc(C3COc4ccc([C@H](C5CC5)[C@H](C)C(=O)O)cc4C3)c(F)c2)ccn1 (single isomer, unassigned) [Example 17]"
2,8.1,"COc1cc(-c2ccc(C3COc4ccc([C@H](C5CC5)[C@H](C)C(=O)O)cc4C3)c(F)c2)ccn1 (single isomer, unassigned) [Example 18]"
3,3960,"COc1cc(-c2ccc(C3=Cc4cc([C@@H](C5CC5)[C@H](C)C(=O)O)ccc4CC3)c(F)c2)ccn1 (single isomer, unassigned) [Example 29]"
4,3.8,"COc1cc(-c2ccc(C3=Cc4cc([C@@H](C5CC5)[C@@H](C)C(=O)O)ccc4CC3)c(F)c2)ccn1 (single isomer, unassigned) [Example 30]"
5,0.5,"COc1cc(-c2ccc(C3=Cc4cc([C@H](C5CC5)[C@H](C)C(=O)O)ccc4CC3)c(F)c2)ccn1 (single isomer, unassigned) [Example 31]"
6,28,"COc1cc(-c2ccc(C3=Cc4cc([C@H](C5CC5)[C@@H](C)C(=O)O)ccc4CC3)c(F)c2)ccn1 (single isomer, unassigned) [Example 32]"
7,1.4,"COc1cc(-c2ccc(C3CCc4ccc(C(C5CC5)C(C)C(=O)O)cc4C3)c(F)c2)ccn1 (single isomer, unassigned) [Example 33, 3-cyclopropyl-3-(7-(2-fluoro-4-(2-methoxypyridin-4-yl)phenyl)-5,6,7,8-tetrahydronaphthalen-2-yl)-2-methylpropanoic acid]"
8,13,"COc1cc(-c2ccc(C3CCc4ccc(C(C5CC5)C(C)C(=O)O)cc4C3)c(F)c2)ccn1 (single isomer, unassigned) [Example 34]"
9,257,"COc1cc(-c2ccc(C3CCc4ccc(C(C5CC5)C(C)C(=O)O)cc4C3)c(F)c2)ccn1 (single isomer, unassigned) [Example 35]"
10,4.8,"COc1cc(-c2ccc(C3CCc4ccc(C(C5CC5)C(C)C(=O)O)cc4C3)c(F)c2)ccn1 (single isomer, unassigned) [Example 36]"

# Molecular target: T1, human GPR40
# Test: Inositol Phosphate Turnover (IP1) Assay 1
# Format: cell-based
# Conditions: HEK cells stably expressing human GPR40; compound transferred via pocket tip; 60 minutes at 37 degrees
# Method: as §1, §2
# as §3, with “is” for “is acoustically”, “transferred via pocket tip” for “transferred”, “are” for “were”
row,EC50 [nM],Compound
1,5380,"COc1ccc(F)c(-c2ccc(C3Cc4cc(C(CC(=O)O)C5CC5)ccc4CO3)cc2)c1 (mixture of isomers) [Example 20, 3-cyclopropyl-3-(3-(2′-fluoro-5′-methoxy-[1,1′-biphenyl]-4-yl)isochroman-6-yl)propanoic acid]"
2,330,"COc1ccc(F)c(-c2ccc(C3COc4ccc(C(CC(=O)O)C5CC5)cc4C3)cc2)c1 (single isomer, unassigned) [Example 3]"
3,75,"COc1ccc(F)c(-c2ccc(C3COc4ccc(C(CC(=O)O)C5CC5)cc4C3)cc2)c1 (single isomer, unassigned) [Example 4]"
4,106,"COc1ccc(F)c(-c2ccc(C3COc4ccc(C(CC(=O)O)C5CC5)cc4C3)cc2)c1 (single isomer, unassigned) [Example 5]"
5,5.6,"COc1ccc(F)c(-c2ccc(C3COc4ccc([C@H](C5CC5)[C@H](C)C(=O)O)cc4C3)cc2)c1 (single isomer, unassigned) [Example 6]"
6,3,"COc1ccc(F)c(-c2ccc(C3COc4ccc([C@H](C5CC5)[C@H](C)C(=O)O)cc4C3)cc2)c1 (single isomer, unassigned) [Example 7]"
7,169,"COc1ccc(F)c(-c2ccc(C3COc4ccc([C@@H](C5CC5)[C@@H](C)C(=O)O)cc4C3)cc2)c1 (single isomer, unassigned) [Example 8]"
8,60,"COc1ccc(F)c(-c2ccc(C3COc4ccc([C@@H](C5CC5)[C@@H](C)C(=O)O)cc4C3)cc2)c1 (single isomer, unassigned) [Example 9]"
9,13,"COc1cc(-c2ccc(C3COc4ccc([C@H](C5CC5)[C@H](C)C(=O)O)cc4C3)cc2)c(F)cn1 (single isomer, unassigned) [Example 10]"
10,6.3,"COc1cc(-c2ccc(C3COc4ccc([C@H](C5CC5)[C@H](C)C(=O)O)cc4C3)cc2)c(F)cn1 (single isomer, unassigned) [Example 11]"
11,26,"COc1cc(-c2ccc(C3COc4ccc([C@H](C5CC5)[C@H](C)C(=O)O)cc4C3)cc2)ccn1 (single isomer, unassigned) [Example 15]"
12,12,"COc1cc(-c2ccc(C3COc4ccc([C@H](C5CC5)[C@H](C)C(=O)O)cc4C3)cc2)ccn1 (single isomer, unassigned) [Example 16]"
13,166,"COc1ccc(F)c(-c2ccc(C3Cc4cc([C@H](C5CC5)[C@H](C)C(=O)O)ccc4C(=O)O3)cc2)c1 (stereo in doubt) [Example 24, (2S,3R)-3-cyclopropyl-3-((S)-3-(2′-fluoro-5′-methoxy-[1,1′-biphenyl]-4-yl)-1-oxoisochroman-6-yl)-2-methylpropanoic acid]"
14,155,"COc1ccc(F)c(-c2ccc(C3COc4ccc(C(CC(=O)O)C5CC5)cc4C3)cc2)c1 (stereo not drawn) [Example 1, 3-cyclopropyl-3-(3-(2′-fluoro-5′-methoxy-[1,1′-biphenyl]-4-yl)chroman-6-yl)propanoic acid]"
15,12,COc1cc(-c2ccc(C3COc4ccc([C@H](C5CC5)[C@H](C)C(=O)O)cc4C3)cc2)ccn1 (stereo partly drawn) [Example 12]
16,592,Cc1cccc(C)c1-c1ccc(C2COc3ccc([C@H](C4CC4)[C@H](C)C(=O)O)cc3C2)cc1 (stereo partly drawn) [Example 13]
17,32,COc1cc(-c2ccc(C3COc4ccc([C@H](C5CC5)[C@H](C)C(=O)O)cc4C3)c(F)c2)ccn1 (stereo partly drawn) [Example 14]
18,250,"C[C@H](C(=O)O)[C@H](c1ccc2c(c1)CC(c1ccc(-c3cccc(OC4CC4)c3)cc1)CO2)C1CC1 (stereo partly drawn) [Example 19, (2S,3R)-3-(3-(3′-cyclopropoxy-[1,1′-biphenyl]-4-yl)chroman-6-yl)-3-cyclopropyl-2-methylpropanoic acid]"
19,424,"COc1ccc(F)c(-c2ccc([C@@H]3Cc4cc([C@H](C5CC5)[C@H](C)C(=O)O)ccc4C(=O)O3)cc2)c1 [Example 23, (2S,3R)-3-cyclopropyl-3-((S)-3-(2′-fluoro-5′-methoxy-[1,1′-biphenyl]-4-yl)-1-oxoisochroman-6-yl)-2-methylpropanoic acid]"
20,729,"C[C@H](C(=O)O)[C@H](c1ccc2c(c1)CC(C1CCN(Cc3cc(C(F)(F)F)ccc3C(F)(F)F)CC1)CO2)C1CC1 (stereo partly drawn) [Example 25, Sodium (2S,3R)-3-(3-(1-(2,5-bis(trifluoromethyl)benzyl)piperidin-4-yl)chroman-6-yl)-3-cyclopropyl-2-methylpropanoate]"
21,24,"COc1ccc(F)c(-c2ccc(C3CCc4ccc(C(C5CC5)C(C)C(=O)O)cc4C3)cc2)c1 (stereo not drawn) [Example 26, 3-cyclopropyl-3-(7-(2′-fluoro-5′-methoxy-[1,1′-biphenyl]-4-yl)-5,6,7,8-tetrahydronaphthalen-2-yl)-2-methylpropanoic acid]"
22,6.9,"COc1ccc(F)c(-c2ccc(C3CSc4ccc([C@H](C5CC5)[C@H](C)C(=O)O)cc4C3)cc2)c1 (stereo partly drawn) [Example 27, (2S,3R)-3-cyclopropyl-3-(3-(2′-fluoro-5′-methoxy-[1,1′-biphenyl]-4-yl)thiochroman-6-yl)-2-methylpropanoic acid]"
23,69,"COc1ccc(F)c(-c2ccc(C3Cc4cc([C@H](C5CC5)[C@H](C)C(=O)O)ccc4S(=O)(=O)C3)cc2)c1 (stereo partly drawn) [Example 28, (2S,3R)-3-Cyclopropyl-3-(3-(2′-fluoro-5′-methoxy-[1,1′-biphenyl]-4-yl)-1,1-dioxidothiochroman-6-yl)-2-methylpropanoic acid]"
